Experimental data published in US10138229B2, “Heteroaromatic compounds as BTK inhibitors” (Boehringer Ingelheim International GmbH, priority 2012, dated 2018).

Experiments:
[1] = target: full-length human His-tagged BTK (Homo sapiens (Human), UniProt Q06187); test: BTK Assay (HTRF, Cisbio KinEASE-TK); format: biochemical; conditions: 6 nM BTK, 30 uM ATP, 15 min preincubation
Protocol: An HTRF assay (Cisbio KinEASE-TK cat #62TKOPEC) was performed to quantitate the ability of test compounds to inhibit BTK mediated phosphorylation of substrate. Assays were assembled in 384 well plates where 6 nM of full-length human His-tagged BTK (Life Technologies cat # PV3587) and test compound at varying concentrations were preincubated for 15 minutes at 28° C. Then, 1 uM of TK substrate-biotin and 30 uM ATP were added and incubated for an additional 30 minutes at 28° C.

[2] = target: BTK (Homo sapiens (Human), UniProt Q06187); test: Inhibition of B-cell activation measured by CD69 expression in primary CD19+ cells; format: cell-based; conditions: primary CD19+ cells stimulated with anti-human IgD, CD69 expression by flow cytometry
BTK, sequence (Q06187 whole entry): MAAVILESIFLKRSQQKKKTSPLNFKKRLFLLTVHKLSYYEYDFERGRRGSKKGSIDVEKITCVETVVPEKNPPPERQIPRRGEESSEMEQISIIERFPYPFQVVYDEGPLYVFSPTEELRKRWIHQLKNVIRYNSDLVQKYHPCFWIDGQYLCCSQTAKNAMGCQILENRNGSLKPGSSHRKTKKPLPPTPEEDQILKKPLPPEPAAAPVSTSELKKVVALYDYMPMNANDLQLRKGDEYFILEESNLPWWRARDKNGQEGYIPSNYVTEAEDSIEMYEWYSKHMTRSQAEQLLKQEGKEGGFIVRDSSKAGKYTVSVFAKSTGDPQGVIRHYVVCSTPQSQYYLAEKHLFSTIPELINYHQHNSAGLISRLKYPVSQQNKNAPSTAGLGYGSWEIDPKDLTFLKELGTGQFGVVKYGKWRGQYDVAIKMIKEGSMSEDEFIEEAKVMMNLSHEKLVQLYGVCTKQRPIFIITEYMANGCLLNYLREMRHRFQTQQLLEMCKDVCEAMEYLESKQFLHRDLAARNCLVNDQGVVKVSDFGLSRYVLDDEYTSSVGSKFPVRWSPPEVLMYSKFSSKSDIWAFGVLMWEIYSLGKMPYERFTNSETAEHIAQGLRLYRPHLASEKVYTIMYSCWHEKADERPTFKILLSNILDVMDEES
Protocol: Cells were collected and plated in a 96 flat bottom plate at a concentration of 2×10^5/well in RPMI media containing 10% FBS, rested for 1 hour at 37° c. Cells were treated with inhibitor in duplicates or vehicle control in 1% DMSO final concentration for 1 hour at 37° c., 5% CO2. […] B cells were analyzed by flow cytometry using a BD LSRII or BD FACsCanto Flow Cytometer. Viable cells were gated, and CD69 percentage was determined using FlowJo software.

[3] = target: EGFR (Homo sapiens (Human), UniProt P00533); test: Inhibition of EGFR autophosphorylation in A431 human epithelial cells stimulated with EGF; format: cell-based; conditions: EGF 60 ng/mL, phospho EGFR, read-out: A431 p-EGFR IC50
EGFR, sequence (P00533 25-1210): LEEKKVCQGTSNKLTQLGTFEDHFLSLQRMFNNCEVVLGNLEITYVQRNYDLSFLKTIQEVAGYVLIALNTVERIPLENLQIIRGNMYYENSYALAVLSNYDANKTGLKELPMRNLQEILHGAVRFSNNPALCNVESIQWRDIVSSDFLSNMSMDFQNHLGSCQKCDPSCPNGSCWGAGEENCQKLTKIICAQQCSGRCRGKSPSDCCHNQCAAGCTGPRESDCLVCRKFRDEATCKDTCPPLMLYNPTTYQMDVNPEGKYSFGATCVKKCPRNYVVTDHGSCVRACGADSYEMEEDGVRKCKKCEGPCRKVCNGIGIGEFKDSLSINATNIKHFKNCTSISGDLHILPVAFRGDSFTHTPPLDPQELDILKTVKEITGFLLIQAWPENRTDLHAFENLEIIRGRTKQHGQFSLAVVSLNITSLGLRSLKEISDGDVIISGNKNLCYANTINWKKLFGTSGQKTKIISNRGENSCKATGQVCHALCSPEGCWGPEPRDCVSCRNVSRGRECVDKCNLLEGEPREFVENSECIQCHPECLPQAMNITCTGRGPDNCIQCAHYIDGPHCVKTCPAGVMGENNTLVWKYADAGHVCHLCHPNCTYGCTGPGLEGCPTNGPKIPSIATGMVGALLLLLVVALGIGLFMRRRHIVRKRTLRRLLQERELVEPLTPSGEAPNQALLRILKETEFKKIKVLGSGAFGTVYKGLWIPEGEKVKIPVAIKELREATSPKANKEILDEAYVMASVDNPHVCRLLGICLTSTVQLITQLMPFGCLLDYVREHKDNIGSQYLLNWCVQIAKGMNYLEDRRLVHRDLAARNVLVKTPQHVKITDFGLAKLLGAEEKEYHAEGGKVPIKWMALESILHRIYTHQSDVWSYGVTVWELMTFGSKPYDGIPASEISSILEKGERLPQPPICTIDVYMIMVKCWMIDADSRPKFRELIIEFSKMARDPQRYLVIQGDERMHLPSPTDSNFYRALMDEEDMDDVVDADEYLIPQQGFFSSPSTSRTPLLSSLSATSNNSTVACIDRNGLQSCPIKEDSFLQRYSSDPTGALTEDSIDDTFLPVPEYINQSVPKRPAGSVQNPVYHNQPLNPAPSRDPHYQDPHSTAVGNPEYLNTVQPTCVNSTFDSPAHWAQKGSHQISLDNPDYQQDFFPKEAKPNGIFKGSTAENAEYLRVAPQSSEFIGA
Source text: The compounds described herein show a range of selectivities against EGFR as measured in cellular assays (BTK activity measured by CD69 expression in primary CD19^+ cells; EGFR activity measured by EGFR phosphorylation in A431 cells).
Inhibition of EGFR Autophosphorylation in A431 Human Epithelial Cells Stimulated with Epithelial Growth Factor
A431 cells (ATCC # CRL-1555 FZ) are thawed and plated in DMEM containing 10% FBS in a 384-well tissue culture treated plate at 15,000 cells/well. After incubating for 24 hours at 37° C., 5% CO2, the cells are treated with test compound (1% DMSO final concentration) and incubated for 16 hours at 37° C., 5% CO2. EGF (Millipore, 01-107) is added at a final concentration of 60 ng/mL and incubated for 10 minutes. The medium is removed, the cells are lysed, and phospho EGFR is measured (Meso Scale Diagnostics, N31CB-1).

full-length human His-tagged BTK, sequence (Q06187 whole entry): as the sequence (Q06187 whole entry) above

C=CC(=O)N1CC[C@]2(C1)C[C@H](n1cc(C(N)=O)c(-c3ccc(Oc4ccccc4)cc3)n1)C2 [Example 40] showed an IC50 [1] of 4.9 nM, an IC50 [2] of 20 nM and an IC50 [3] of over 10000 nM.
For CC#CC(=O)N1CC2(CC(n3nc(-c4ccc(Oc5ccccc5)cc4)c(C(N)=O)c3N)C2)C1 [Example 41], the IC50 [1] was 0.73 nM, the IC50 [2] was 1 nM and the IC50 [3] was 430 nM.
For C=CC(=O)N1CCC[C@@H](c2nc(-c3ccc(Oc4ccccc4)cc3)c(C(N)=O)[nH]2)C1 [Example 46], the IC50 [1] was 1.2 nM, the IC50 [2] was 2 nM and the IC50 [3] was 120 nM.
For CC#CC(=O)N1CC[C@]2(C1)C[C@@H](c1nc(-c3ccc(Oc4ccccc4)cc3)c(C(N)=O)s1)C2 [Example 78], the IC50 [1] was 2.1 nM, the IC50 [2] was 2.5 nM and the IC50 [3] was 1800 nM.
Work on C=CC(=O)N1CC[C@]2(C1)C[C@@H](n1nc(-c3ccc(Oc4ccccc4)cc3)c(C(N)=O)c1N)C2 [Example 81] yielded an IC50 [1] of 0.79 nM, an IC50 [2] of 0.9 nM and an IC50 [3] of 790 nM.
For CC#CC(=O)N1CC2(CC(n3nc(-c4ccc(OC(C)C)cc4)c(C(N)=O)c3N)C2)C1 [Example 106], the IC50 [1] was 13 nM, the IC50 [2] was 30 nM and the IC50 [3] was over 10000 nM.
Work on CC#CC(=O)N1CC2(CC(n3nc(-c4ccc(OCCC)cc4)c(C(N)=O)c3N)C2)C1 [Example 107] yielded an IC50 [1] of 3.3 nM, an IC50 [2] of 8.2 nM and an IC50 [3] of 4200 nM.
Molecule C=CC(=O)N1CC2(CC(n3nc(-c4ccc(OC5CC5)cc4)c(C(N)=O)c3N)C2)C1 [Example 112] has an IC50 [1] of 6.7 nM, an IC50 [2] of 41 nM and an IC50 [3] of 5800 nM.
With CC#CC(=O)N1CC2(CC(n3nc(-c4ccc(OCC(F)(F)F)cc4)c(C(N)=O)c3N)C2)C1 [Example 115] the IC50 [1] was 3.5 nM, the IC50 [2] was 7.8 nM and the IC50 [3] was 6400 nM.
Molecule CC#CC(=O)N1CC[C@]2(C1)C[C@H](n1nc(-c3ccc(OC)cc3Cl)c(C(N)=O)c1N)C2 [Example 158] has an IC50 [1] of 6.3 nM, an IC50 [2] of 58 nM and an IC50 [3] of over 10000 nM.
For CC#CC(=O)N1CC[C@]2(C1)C[C@H](n1nc(-c3ccc(OC(F)(F)F)cc3)c(C(N)=O)c1N)C2 [Example 160], the IC50 [1] was 1.4 nM, the IC50 [2] was 4.5 nM and the IC50 [3] was 1200 nM.
CC#CC(=O)N1CC[C@]2(C1)C[C@H](n1nc(-c3ccc(OCCC)c(F)c3)c(C(N)=O)c1N)C2 [Example 161] gave an IC50 [1] of 1.1 nM, an IC50 [2] of 2.1 nM and an IC50 [3] of 400 nM.
C=CC(=O)N1CC[C@]2(C1)C[C@H](n1nc(-c3ccc(OCC(F)(F)F)cc3)c(C(N)=O)c1N)C2 [Example 163] was tested, and the IC50 [1] was 4.8 nM, the IC50 [2] was 15 nM and the IC50 [3] was 5200 nM.
For CC#CC(=O)N1CC[C@]2(C1)C[C@H](n1nc(-c3ccc(OCC(F)(F)F)cc3)c(C(N)=O)c1N)C2 [Example 164], the IC50 [1] was 0.5 nM, the IC50 [2] was 1.5 nM and the IC50 [3] was 420 nM.
Work on C=CC(=O)N1CC[C@]2(C1)C[C@H](n1nc(-c3ccc(OCCC)c(F)c3)c(C(N)=O)c1N)C2 [Example 165] yielded an IC50 [1] of 15 nM, an IC50 [2] of 10 nM and an IC50 [3] of 3700 nM.
